Measurements: article PMC7280195, “Simple ammonium salts acting on sigma-1 receptors yield potential treatments for cancer and depression” (Scientific Reports, 2020)
Like-named read-outs stand apart in the source and are kept apart here.

Columns and labels:
[1] = molecular target: T1, sigma-2 receptor (Homo sapiens, UniProt Q5BJF2); assay: biochemical; assay type: binding
T1 construct: MCF7 cells were suspended in sigma-2 assay buffer (50 mM Tris-HCl; pH 8.0), sonicated (1 minute) and the homogenate was centrifuged; endogenous in cells; host or cells: MCF7 cells (gift), membrane pellet
T1 sequence (Q5BJF2 whole entry): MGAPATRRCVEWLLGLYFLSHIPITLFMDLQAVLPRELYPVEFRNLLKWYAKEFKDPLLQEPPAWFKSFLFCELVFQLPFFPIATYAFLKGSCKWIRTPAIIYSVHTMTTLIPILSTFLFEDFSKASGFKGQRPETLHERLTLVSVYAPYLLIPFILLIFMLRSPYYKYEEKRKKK

[2] = molecular target: muscarinic receptor; parameters: method as in PMID 11834244; conditions: cited from earlier work
[3] = system: mice; assay: Forced-swim test; assay type: in vivo
[4] = system: MDA-MB-468 cells; assay: Fura-2 cytoplasmic calcium measurement in MDA-MB-468 cells; assay type: cell-based
[5] = system: MCF7 cells; assay type: cell-based
[6] = system: MDA-MB-468 cells; assay: cells; assay type: cell-based
[7] = system: MAC13 tumours
[8] = system: MAC13 cells; assay: MTS assay in MAC13 cells in vitro; assay type: cell-based, mouse; conditions: mean ± SEM, n = 6
Experimental: Cells (10,000 cells per well, 100 μl) were seeded into 96-well plates and allowed to adhere overnight. The following day drugs were added and cells were permitted to proliferate for 24 hours before the addition of 10 μl CellTiter 96 AQueous Non-Radioactive Cell Proliferation Assay reagent (Promega, Southampton, UK) as previously described. Absorbance (490 nm) readings were taken at 0, 1, 2 and 3 hours to monitor formazan formation and rates of metabolic activity were compared.

[9] = molecular target: muscarinic acetylcholine receptor; assay type: binding, rat; conditions: for mACh R affinity pKi ± SEM (n) / Ki: rat brain membranes; for mACh R affinity pKi ± SEM (n): 1.35 nM [3H] QNB; for Ki: read-out: mACh R affinity Ki; for mACh R Ki/σ-1 R Ki: ratio between Ki values
[10] = molecular target: noradrenaline transporter; conditions: read-out: Ki noradrenaline transport, previously published; cited from earlier work
[11] = molecular target: human noradrenaline transporter (Homo sapiens, UniProt P23975); assay: Monoamine transporter uptake assay, 293 cells expressing noradrenaline transporter; assay type: cell-based
Sequence of human noradrenaline transporter (P23975 whole entry): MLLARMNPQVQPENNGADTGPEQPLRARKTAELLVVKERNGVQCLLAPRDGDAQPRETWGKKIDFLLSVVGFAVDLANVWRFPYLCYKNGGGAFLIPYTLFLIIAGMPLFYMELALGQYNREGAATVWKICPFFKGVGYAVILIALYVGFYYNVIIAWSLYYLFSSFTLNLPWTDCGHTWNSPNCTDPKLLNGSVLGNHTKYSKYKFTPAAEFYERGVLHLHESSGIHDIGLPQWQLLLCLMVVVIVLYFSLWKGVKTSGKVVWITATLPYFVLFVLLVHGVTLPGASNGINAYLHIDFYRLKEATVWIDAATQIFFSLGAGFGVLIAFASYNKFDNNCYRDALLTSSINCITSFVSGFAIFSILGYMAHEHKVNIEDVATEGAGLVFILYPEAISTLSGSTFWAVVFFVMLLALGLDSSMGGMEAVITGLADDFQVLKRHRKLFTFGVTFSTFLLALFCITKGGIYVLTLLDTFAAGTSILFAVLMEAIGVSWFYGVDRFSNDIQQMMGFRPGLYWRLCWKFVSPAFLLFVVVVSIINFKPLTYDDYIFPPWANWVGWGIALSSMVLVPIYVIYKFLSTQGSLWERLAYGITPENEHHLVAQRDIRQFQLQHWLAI

[12] = system: mice; assay: Locomotor activity (Actophotometer); assay type: in vivo; conditions: control 140 ± 15
Experimental: All drugs were dissolved in normal saline and different doses were administered intraperitoneally in a fixed volume of 1 ml.100 g^−1 body weight 30 minutes before the animals were subjected to the test.
Locomotor activity (ambulations) was measured by using a computerised Actophotometer (IMCORP, India). […] Mice were allowed to acclimatise to the observation chamber for a period of 2 minutes. The activity was monitored continuously for a period of 15 minutes. Locomotion was expressed in terms of total photobeam counts per 15 minutes per animal and compared to vehicle control groups as previously described.

[13] = system: mice; assay: Tail suspension test; assay type: in vivo
Experimental: Animals were acclimatised to laboratory conditions before the experiment. Each animal was used only once. […] All drugs were dissolved in normal saline and different doses were administered intraperitoneally in a fixed volume of 1 ml.100 g^−1 body weight 30 minutes before the animals were subjected to the test. […] Each mouse was considered immobile when it hung passively and completely motionless. The total immobility period was recorded and compared to vehicle control group.

[14] = molecular target: T2, human dopamine transporter (Homo sapiens, UniProt Q01959); assay: Monoamine transporter uptake assay, 293 cells expressing dopamine transporter; assay type: cell-based
T2 construct: expressed in transfected cells
T2 sequence (Q01959 whole entry): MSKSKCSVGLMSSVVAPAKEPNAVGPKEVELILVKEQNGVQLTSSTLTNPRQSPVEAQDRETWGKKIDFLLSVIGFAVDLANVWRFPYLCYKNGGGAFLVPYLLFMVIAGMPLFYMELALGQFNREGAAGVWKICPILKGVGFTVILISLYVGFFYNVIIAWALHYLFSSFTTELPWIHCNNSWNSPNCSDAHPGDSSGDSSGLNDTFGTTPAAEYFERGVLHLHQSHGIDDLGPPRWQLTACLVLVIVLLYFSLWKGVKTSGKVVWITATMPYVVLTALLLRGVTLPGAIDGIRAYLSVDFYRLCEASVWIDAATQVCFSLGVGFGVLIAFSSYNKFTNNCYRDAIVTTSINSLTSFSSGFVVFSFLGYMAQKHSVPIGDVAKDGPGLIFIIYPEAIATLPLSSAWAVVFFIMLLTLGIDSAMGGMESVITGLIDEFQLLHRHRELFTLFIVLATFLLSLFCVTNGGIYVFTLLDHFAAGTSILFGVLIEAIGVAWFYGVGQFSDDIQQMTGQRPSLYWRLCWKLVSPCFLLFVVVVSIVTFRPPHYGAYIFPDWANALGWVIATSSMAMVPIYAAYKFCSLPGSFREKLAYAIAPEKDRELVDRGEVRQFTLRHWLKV

[15] = molecular target: human 5-HT transporter (Homo sapiens, UniProt P31645); assay type: cell-based
Sequence of human 5-HT transporter (P31645 whole entry): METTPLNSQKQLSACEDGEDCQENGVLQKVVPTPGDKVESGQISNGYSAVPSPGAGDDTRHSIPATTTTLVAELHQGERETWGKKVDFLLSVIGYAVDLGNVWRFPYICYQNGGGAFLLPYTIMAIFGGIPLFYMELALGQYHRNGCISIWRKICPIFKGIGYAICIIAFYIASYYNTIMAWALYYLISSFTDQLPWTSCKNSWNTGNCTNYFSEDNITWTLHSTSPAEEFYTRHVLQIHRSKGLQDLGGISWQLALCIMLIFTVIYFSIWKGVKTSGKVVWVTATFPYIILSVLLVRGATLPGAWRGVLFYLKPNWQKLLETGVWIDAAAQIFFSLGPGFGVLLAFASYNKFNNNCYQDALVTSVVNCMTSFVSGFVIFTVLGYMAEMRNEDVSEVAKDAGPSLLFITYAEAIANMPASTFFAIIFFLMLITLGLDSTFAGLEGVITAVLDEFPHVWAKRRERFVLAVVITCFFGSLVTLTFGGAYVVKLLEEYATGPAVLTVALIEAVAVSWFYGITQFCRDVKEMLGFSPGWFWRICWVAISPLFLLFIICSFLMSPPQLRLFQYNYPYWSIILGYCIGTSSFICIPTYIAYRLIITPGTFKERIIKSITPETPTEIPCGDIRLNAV

[16] = dipentylammonium 5 mg.kg−1 plus BD1047 4 mg.kg−1

SMILES: NC1C2CC3CC(C2)CC1C3 (stereo not drawn) [2-adamantyl]
- σ-2 R affinity pKi ± SEM (n) [1]: 5.5 ± 0.2 (3)
- Ki ([1]; read-out: σ-2 R affinity Ki): 3.5 µM

SMILES: CC(C)=CCN1CC[C@]2(C)c3cc(O)ccc3C[C@H]1[C@H]2C [(+) pentazocine]
- pKi muscarinic receptor [2]: 6.29 ± 0.06

SMILES: CN(C)CCN(C)CCc1ccc(Cl)c(Cl)c1 [BD1047, N’-[2-(3,4-dichlorophenyl)ethyl]-N,N,N’-trimethylethane-1,2-diamine, reference compound]
- time spent immobile, forced-swim test ([3]; ip, 4 mg/kg, 0.1 h): 217 ± 17 s

SMILES: CCCCC(CC)CNCC(CC)CCCC (stereo not drawn) [Bis(2-ethylhexyl), bis(2-ethylhexyl)ammonium]
- pEC50 calcium response ([4]; Fura-2 loaded MDA-MB-468 cells): 2.9 ± 0.1
- effect on MCF7 cells in MTS assay [5]: without effect
- pIC50 reduction of cell metabolism [6]: 3.3 ± 0.1
- pIC50 reduction of cell metabolism, non-targeting control [6]: 3.37 ± 0.08
- MAC13 tumour growth compared to vehicle control ([7]; 10 mg.kg−1 i.v. daily from day 12, P < 0.001): statistically significant reduction in tumour growth
- tolerability in tumour-bearing mice ([7]; 10 mg.kg−1 i.v. daily, grooming activity maintained): no negative signs
- pIC50 reduction in MAC13 cell metabolism [8]: 5.3 ± 0.2
- mACh R affinity pKi ± SEM (n) [9]: 3.9 ± 0.2 (6)
- Ki [9]: 120 µM
- mACh R Ki/σ-1 R Ki [9]: 4.1
- σ-2 R affinity pKi ± SEM (n) [1]: 4.0 ± 0.2 (3)
- Ki ([1]; read-out: σ-2 R affinity Ki): 91 µM

SMILES: CCCCN [Butyl]
- σ-2 R affinity pKi ± SEM (n) [1]: 3.26 ± 0.05 (3)
- Ki ([1]; read-out: σ-2 R affinity Ki): 550 µM

SMILES: CCCCCCCCCCN [Decyl, decylammonium]
- σ-2 R affinity pKi ± SEM (n) [1]: 5.41 ± 0.07 (3)
- Ki ([1]; read-out: σ-2 R affinity Ki): 3.9 µM

SMILES: CNCCCN1c2ccccc2CCc2ccccc21 [Desipramine, desipramine]
- Ki [10]: 0.0043 µM

SMILES: CCC(C)NC(C)CC (stereo not drawn) [Di-sec-butyl, di-sec-butylammonium]
- σ-2 R affinity pKi ± SEM (n) [1]: 5.2 ± 0.2 (3)
- Ki ([1]; read-out: σ-2 R affinity Ki): 6.3 µM

SMILES: CCCCNCCCC [Dibutyl]
- σ-2 R affinity pKi ± SEM (n) [1]: 5.64 ± 0.07 (3)
- Ki ([1]; read-out: σ-2 R affinity Ki): 2.3 µM

SMILES: C1CCC(NC2CCCCC2)CC1 [Dicyclohexyl, dicyclohexylammonium]
- effect on MCF7 cells in MTS assay ([5]; MCF7 cells (sigma-2 only)): without effect
- IC50 ([6]; Homo sapiens, MDA-MB-468, 24 h, read-out: pIC50 reduction of cell metabolism (converted)): 126 µM
- Ki [1]: 0.138 µM

SMILES: CCNCC.Cl [Diethyl]
- σ-2 R affinity pKi ± SEM (n) [1]: <3 (3)

SMILES: CC(C)CNCC(C)C [Diisobutyl]
- σ-2 R affinity pKi ± SEM (n) [1]: 5.2 ± 0.2 (3)
- Ki ([1]; read-out: σ-2 R affinity Ki): 6.6 µM

SMILES: CC(C)NC(C)C [Diisopropyl]
- σ-2 R affinity pKi ± SEM (n) [1]: 4.1 ± 0.1 (3)
- Ki ([1]; read-out: σ-2 R affinity Ki): 71 µM

SMILES: CNC [Dimethyl]
- σ-2 R affinity pKi ± SEM (n) [1]: <3 (3)

SMILES: CCCCCCCCNCCCCCCCC [Dioctyl, dioctylammonium]
- behaviour in the calcium buffer ([4]; calcium response could not be assessed): precipitation was observed
- pIC50 reduction of cell metabolism [6]: 5.0 ± 0.2
- σ-2 R affinity pKi ± SEM (n) [1]: 7.9 ± 0.5 (3)
- Ki ([1]; read-out: Ki for sigma-2 receptors): 0.013 µM
- Ki ([1]; read-out: σ-2 R affinity Ki): 0.014 µM

SMILES: CCCCCNCCCCC [Dipentyl, dipentylammonium]
- pIC50 noradrenaline transport [11]: 3.6 ± 0.1
- IC50 ([11]; read-out: IC50 noradrenaline transport): 200 µM
- locomotion ([12]; 5 mg.kg−1 alone): 128 ± 19 events in 15 minutes
- locomotion [12, 16]: 114 ± 14 events in 15 minutes
- time spent immobile, forced-swim test ([3]; 5 mg.kg−1 i.p., 6 minutes, control 233 ± 10): 80 ± 13 s
- time spent immobile, forced-swim test [3, 16]: 185 ± 5 s
- time spent immobile, tail suspension test ([13]; 5 mg.kg−1, 6 minutes, control 235 ± 19): 116 ± 7 s
- time spent immobile, tail suspension test [13, 16]: 182 ± 30 s
- pIC50 dopamine transport [14]: 3.2 ± 0.2
- IC50 ([14]; read-out: IC50 dopamine transport): 600 µM
- pIC50 serotonin reuptake [15]: 3.0 ± 0.2
- IC50 ([15]; read-out: IC50 serotonin reuptake): 1100 µM
- mACh R affinity pKi ± SEM (n) [9]: 3.4 ± 0.2 (5)
- Ki [9]: 380 µM
- mACh R Ki/σ-1 R Ki [9]: 8840
- σ-2 R affinity pKi ± SEM (n) [1]: 6.9 ± 0.2 (3)
- Ki ([1]; read-out: σ-2 R affinity Ki): 0.12 µM

SMILES: CCCNCCC.Cl [Dipropyl]
- σ-2 R affinity pKi ± SEM (n) [1]: 4.10 ± 0.07 (3)
- Ki ([1]; read-out: σ-2 R affinity Ki): 79 µM

SMILES: CNCCC(Oc1ccc(C(F)(F)F)cc1)c1ccccc1 (stereo not drawn) [Fluoxetine, fluoxetine, reference compound]
- time spent immobile, forced-swim test ([3]; 10 mg.kg−1 i.p., 6 minutes, control 233 ± 10): 153 ± 19 s
- time spent immobile, tail suspension test ([13]; 10 mg.kg−1, 6 minutes, control 235 ± 19): 126 ± 22 s
